In ChEMBL document CHEMBL4610087, “Swinhopeptolides A and B: Cyclic Depsipeptides from the Sponge Theonella swinhoei That Inhibit Ras/Raf Interaction” (J Nat Prod, 2020) one finds IC50 data, which are given here for two compounds.

The assay is described as follows: Inhibition of Ras-Raf (unknown origin) protein-protein interaction incubated for 4 hrs by cell based-BRET assay. As to conditions: Homo sapiens. Background: In BRET a luciferase serves as donor, and the signal depends on an acceptor being close.

Compound `C/C=C(\NC(=O)[C@@H](CO)NC(=O)[C@@](C)(O)[C@H](O)/C=C\C(C)=C\[C@H](C)CC)C(=O)N[C@H](C(=O)N[C@H](C(=O)N[C@H]1C(=O)N[C@H](COC)C(=O)NCC(=O)N[C@@H](C)C(=O)N(C)[C@@H]([C@@H](C)O)C(=O)N[C@H]([C@H](OC)c2ccc(O)cc2)C(=O)N2CCC[C@H]2C(=O)O[C@@H]1C(C)C)[C@@H](C)[C@@H](C)C(N)=O)[C@H](C)N` yielded an IC50 of 5.8 µM.
The same measure for `C/C=C(\NC(=O)[C@@H](CO)NC(=O)/C(C)=C/C=C/C(C)=C/C(C)CC)C(=O)N[C@H](C(=O)N[C@H](C(=O)N[C@H]1C(=O)N[C@H](COC)C(=O)NCC(=O)N[C@@H](C)C(=O)N(C)[C@@H]([C@@H](C)O)C(=O)N[C@H]([C@H](OC)c2ccc(O)cc2)C(=O)N2CCC[C@H]2C(=O)O[C@@H]1C(C)C)[C@@H](C)[C@@H](C)C(N)=O)[C@H](C)N` (some centres not stated): 8.5 µM.

The term IC50 denotes the concentration needed to halve the response being measured. Read a high IC50 as weaker potency.
